Measurements published in paper PMC10716637 (RSC Advances, 2023).
Where two headings read alike, the source gives them in different places.

Experiments:
HepG2 = assay: MTT cytotoxicity assay, HepG2; assay type: cell-based, human; conditions: for Selectivity index (SI): folds more toxic respecting HepG2 than normal VERO cells: CC50 VERO vs EC50 HepG2; for EC50: Homo sapiens, HepG2, read-out: EC50 HepG2
MCF-7 = assay: MTT cytotoxicity assay, MCF-7; assay type: cell-based, human; conditions: for Selectivity index (SI): folds toxic in MCF-7 than in normal VERO cells: CC50 VERO vs EC50 MCF-7; for EC50: Homo sapiens, MCF7, read-out: EC50 MCF-7
EGFR^WT = EGFR^WT (Homo sapiens, UniProt P00533); assay: In vitro EGFR^WT kinase inhibitory assay; assay type: biochemical
Chain of EGFR^WT (P00533 25-1210): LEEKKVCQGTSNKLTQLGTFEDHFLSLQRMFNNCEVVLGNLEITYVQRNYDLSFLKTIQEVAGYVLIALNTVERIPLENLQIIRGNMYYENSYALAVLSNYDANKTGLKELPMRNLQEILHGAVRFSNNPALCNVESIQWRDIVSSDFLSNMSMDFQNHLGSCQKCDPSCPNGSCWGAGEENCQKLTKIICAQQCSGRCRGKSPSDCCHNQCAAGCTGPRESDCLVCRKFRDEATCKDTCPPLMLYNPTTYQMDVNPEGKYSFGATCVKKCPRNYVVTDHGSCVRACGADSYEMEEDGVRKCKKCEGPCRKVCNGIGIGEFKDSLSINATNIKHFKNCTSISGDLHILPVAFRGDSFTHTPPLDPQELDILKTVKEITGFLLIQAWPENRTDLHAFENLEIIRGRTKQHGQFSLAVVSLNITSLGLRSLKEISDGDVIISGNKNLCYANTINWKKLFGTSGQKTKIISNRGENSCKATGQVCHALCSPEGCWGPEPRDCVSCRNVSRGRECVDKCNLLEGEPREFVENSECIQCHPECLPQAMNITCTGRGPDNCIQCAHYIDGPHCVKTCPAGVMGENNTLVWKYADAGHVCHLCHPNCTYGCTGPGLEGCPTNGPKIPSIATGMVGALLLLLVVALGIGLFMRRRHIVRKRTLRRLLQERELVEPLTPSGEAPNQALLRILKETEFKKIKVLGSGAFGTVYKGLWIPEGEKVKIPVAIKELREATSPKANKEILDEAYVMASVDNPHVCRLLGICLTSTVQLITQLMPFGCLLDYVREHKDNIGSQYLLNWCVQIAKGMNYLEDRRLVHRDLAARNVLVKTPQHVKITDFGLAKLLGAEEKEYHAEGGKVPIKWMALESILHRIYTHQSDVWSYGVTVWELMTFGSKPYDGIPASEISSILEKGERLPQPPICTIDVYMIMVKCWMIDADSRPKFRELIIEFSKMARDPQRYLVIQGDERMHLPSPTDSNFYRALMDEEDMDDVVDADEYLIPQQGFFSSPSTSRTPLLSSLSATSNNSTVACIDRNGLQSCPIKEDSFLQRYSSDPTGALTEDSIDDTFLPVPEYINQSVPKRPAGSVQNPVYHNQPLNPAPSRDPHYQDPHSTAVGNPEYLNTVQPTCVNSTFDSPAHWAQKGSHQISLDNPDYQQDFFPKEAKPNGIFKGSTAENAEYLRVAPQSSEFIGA

[1] = Cytotoxicity against VERO normal cell lines; conditions: African green monkey, VERO normal cells
EGFR^T790M = EGFR^T790M (Homo sapiens, UniProt P00533, T790M); assay: In vitro EGFR^T790M kinase inhibitory assay; assay type: biochemical
Chain of EGFR^T790M (P00533 25-1210 T790M): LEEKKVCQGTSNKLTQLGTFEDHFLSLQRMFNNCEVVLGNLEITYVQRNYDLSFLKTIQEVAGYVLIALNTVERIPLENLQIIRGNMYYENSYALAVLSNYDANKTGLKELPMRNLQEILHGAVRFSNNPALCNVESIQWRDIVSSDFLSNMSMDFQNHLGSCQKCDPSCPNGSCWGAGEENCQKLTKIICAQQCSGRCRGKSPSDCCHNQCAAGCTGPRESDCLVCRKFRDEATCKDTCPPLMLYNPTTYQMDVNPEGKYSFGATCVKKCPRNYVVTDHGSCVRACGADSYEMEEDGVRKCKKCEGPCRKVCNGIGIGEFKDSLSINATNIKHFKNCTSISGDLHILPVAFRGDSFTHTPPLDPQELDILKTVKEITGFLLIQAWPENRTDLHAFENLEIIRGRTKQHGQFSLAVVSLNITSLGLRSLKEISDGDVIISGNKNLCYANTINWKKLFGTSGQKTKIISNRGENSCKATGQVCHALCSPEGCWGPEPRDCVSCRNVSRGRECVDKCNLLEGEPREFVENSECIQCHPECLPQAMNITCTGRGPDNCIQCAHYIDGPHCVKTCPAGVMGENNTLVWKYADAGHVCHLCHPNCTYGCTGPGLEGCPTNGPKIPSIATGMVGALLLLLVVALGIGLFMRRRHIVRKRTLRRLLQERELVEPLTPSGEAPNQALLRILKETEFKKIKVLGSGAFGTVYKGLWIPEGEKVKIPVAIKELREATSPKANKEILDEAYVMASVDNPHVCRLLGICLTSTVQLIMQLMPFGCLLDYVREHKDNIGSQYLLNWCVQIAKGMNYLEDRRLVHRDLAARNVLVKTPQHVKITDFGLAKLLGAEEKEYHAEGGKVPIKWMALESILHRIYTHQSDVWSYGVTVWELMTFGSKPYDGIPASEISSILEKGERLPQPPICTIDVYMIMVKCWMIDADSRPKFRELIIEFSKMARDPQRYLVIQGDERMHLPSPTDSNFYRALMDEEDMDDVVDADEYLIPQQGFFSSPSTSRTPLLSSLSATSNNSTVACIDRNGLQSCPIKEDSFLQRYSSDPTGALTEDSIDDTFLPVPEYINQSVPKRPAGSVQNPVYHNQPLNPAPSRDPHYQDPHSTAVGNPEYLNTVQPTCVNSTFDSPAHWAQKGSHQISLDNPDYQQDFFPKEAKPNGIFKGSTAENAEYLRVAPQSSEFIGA

HCT116 = assay: MTT cytotoxicity assay, HCT116; assay type: cell-based, human; conditions: for Selectivity index (SI): folds lethalness in HCT-116 than in VERO cells: CC50 VERO vs EC50 HCT-116; for EC50: Homo sapiens, HCT-116, read-out: EC50 HCT116
A549 = assay: MTT cytotoxicity assay, A549; assay type: cell-based, human; conditions: for Selectivity index (SI): folds toxicity in A549 than in VERO cells: CC50 VERO vs EC50 A549; for EC50: Homo sapiens, A549, read-out: EC50 A549
VEGFR-2 = VEGFR-2 (Homo sapiens, UniProt P35968); assay: In vitro VEGFR-2 kinase inhibitory assay; assay type: biochemical
Chain of VEGFR-2 (P35968 20-1356): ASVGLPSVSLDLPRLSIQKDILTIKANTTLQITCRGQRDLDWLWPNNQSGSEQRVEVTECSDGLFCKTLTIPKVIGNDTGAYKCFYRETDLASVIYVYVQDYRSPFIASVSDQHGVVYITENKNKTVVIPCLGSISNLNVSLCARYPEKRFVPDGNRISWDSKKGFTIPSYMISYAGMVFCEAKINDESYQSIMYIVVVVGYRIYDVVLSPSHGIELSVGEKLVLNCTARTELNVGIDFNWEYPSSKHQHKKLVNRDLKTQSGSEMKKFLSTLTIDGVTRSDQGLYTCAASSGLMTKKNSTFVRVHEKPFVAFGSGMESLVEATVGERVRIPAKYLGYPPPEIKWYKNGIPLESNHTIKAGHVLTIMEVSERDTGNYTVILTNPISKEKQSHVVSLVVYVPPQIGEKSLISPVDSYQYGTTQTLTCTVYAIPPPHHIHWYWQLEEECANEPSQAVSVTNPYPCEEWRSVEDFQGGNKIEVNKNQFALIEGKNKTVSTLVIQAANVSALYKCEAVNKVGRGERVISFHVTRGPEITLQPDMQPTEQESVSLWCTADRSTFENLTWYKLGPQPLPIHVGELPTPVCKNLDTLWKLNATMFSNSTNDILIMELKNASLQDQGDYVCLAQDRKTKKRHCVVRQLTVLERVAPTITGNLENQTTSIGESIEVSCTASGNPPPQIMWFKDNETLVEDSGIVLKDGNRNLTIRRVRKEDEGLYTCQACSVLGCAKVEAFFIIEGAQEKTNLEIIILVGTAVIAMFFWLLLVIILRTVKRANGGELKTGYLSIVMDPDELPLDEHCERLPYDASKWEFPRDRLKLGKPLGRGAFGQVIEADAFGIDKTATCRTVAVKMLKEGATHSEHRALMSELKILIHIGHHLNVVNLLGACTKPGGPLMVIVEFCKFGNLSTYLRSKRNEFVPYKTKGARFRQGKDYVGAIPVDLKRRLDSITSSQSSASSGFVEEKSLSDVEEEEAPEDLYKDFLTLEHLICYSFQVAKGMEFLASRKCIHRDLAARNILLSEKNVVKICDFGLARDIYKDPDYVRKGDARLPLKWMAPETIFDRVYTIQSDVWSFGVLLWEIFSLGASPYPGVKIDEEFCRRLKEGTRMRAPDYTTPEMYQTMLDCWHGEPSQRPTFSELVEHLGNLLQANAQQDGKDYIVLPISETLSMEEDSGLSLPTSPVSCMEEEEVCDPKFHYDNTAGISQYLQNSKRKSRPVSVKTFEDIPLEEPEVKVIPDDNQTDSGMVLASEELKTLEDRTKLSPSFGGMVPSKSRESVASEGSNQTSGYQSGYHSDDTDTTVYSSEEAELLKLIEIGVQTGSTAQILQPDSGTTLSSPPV

| Compound | Selectivity index (SI): folds more toxic respecting HepG2 than normal VERO cells (HepG2) [folds] | EC50 (HepG2) [µM] | Selectivity index (SI): folds toxic in MCF-7 than in normal VERO cells (MCF-7) [folds] | EC50 (MCF-7) [µM] | IC50 (EGFR^WT) [nM] | CC50 [1] [µM] | IC50 (EGFR^T790M) [nM] | Selectivity index (SI): folds lethalness in HCT-116 than in VERO cells (HCT116) [folds] | EC50 (HCT116) [µM] | Selectivity index (SI): folds toxicity in A549 than in VERO cells (A549) [folds] | EC50 (A549) [µM] | IC50 (VEGFR-2) [nM] | IC50 (EGFR^T790M; IC50 EGFR^T790M) [nM] |
| --- | --- | --- | --- | --- | --- | --- | --- | --- | --- | --- | --- | --- | --- |
| CCn1c(=O)n(CC(=O)Nc2ccc(C(=O)NN=Cc3ccc(C)cc3)cc2)c(=O)c2cc(I)ccc21 [Compound 9b, 2-[1-Ethyl-6-iodo-2,4-dioxo-1,4-dihydroquinazolin-3(2H)-yl]-N-{4-[2-(4-methylbenzylidene)hydrazine-1-carbonyl]phenyl}acetamide] | 7.94 | 6.2 ± 0.7 | 7.35 | 6.7 ± 0.6 | 350 ± 30 | 49.2 ± 0.5 | 500 ± 350 | 8.31 | 5.93 ± 0.6 | 7.30 | 6.75 ± 0.6 | 900 ± 100 |  |
| CCn1c(=O)n(CC(=O)Nc2ccc(-c3nnc(S)o3)cc2)c(=O)c2cc(I)ccc21 [Compound 8a, 2-[1-Ethyl-6-iodo-2,4-dioxo-1,4-dihydroquinazolin-3(2H)-yl]-N-[4-(5-mercapto-1,3,4-oxadiazol-2-yl)phenyl]acetamide] |  | 7.55 ± 0.9 |  | 8.25 ± 0.9 |  |  | 1000 ± 500 |  | 7.25 ± 0.9 |  | 10.1 ± 0.9 | 1500 ± 100 |  |
| CCNC(=O)c1ccc(NC(=O)Cn2c(=O)c3cc(I)ccc3n(CC)c2=O)cc1 [Compound 6a, 4-{2-[1-Ethyl-6-iodo-2,4-dioxo-1,4-dihydroquinazolin-3(2H)-yl]acetamido}-N-ethylbenzamide] |  | 7.8 ± 0.8 |  | 8.5 ± 0.8 |  |  | 900 ± 500 |  | 7.6 ± 0.8 |  | 7.95 ± 0.8 | 1400 ± 200 |  |
| CCn1c(=O)n(CC(=O)Nc2ccc(C(=O)NN)cc2)c(=O)c2cc(I)ccc21 [Compound 7a, 2-(1-Ethyl-6-iodo-2,4-dioxo-1,4-dihydroquinazolin-3(2H)-yl)-N-(4-(hydrazinecarbonyl)phenyl)-acetamide] |  | 16 ± 1.5 |  | 15.5 ± 1.5 |  |  | 1500 ± 500 |  | 13.2 ± 1.5 |  | 13.7 ± 1.5 | 2500 ± 250 |  |
| CCCn1c(=O)n(CC(=O)Nc2ccc(-c3nnc(S)o3)cc2)c(=O)c2cc(I)ccc21 [Compound 8b, 2-[6-Iodo-2,4-dioxo-1-propyl-1,4-dihydroquinazolin-3(2H)-yl]-N-[4-(5-mercapto-1,3,4-oxadiazol-2-yl)phenyl]acetamide] | 6.77 | 7.5 ± 0.7 | 6.81 | 7.45 ± 0.7 | 380 ± 30 | 50.75 ± 0.5 | 450 ± 350 | 7.52 | 6.75 ± 0.7 | 7.57 | 6.7 ± 0.5 | 1380 ± 100 |  |
| CCCn1c(=O)n(CC(=O)Nc2ccc(C(=O)NN=Cc3ccccc3)cc2)c(=O)c2cc(I)ccc21 [Compound 9d, N-[4-(2-benzylidenehydrazine-1-carbonyl)phenyl]-2-[6-iodo-2,4-dioxo-1-propyl-1,4-dihydroquinazolin-3(2H)-yl]acetamide] | 8.92 | 5.65 ± 0.5 | 7.81 | 6.45 ± 0.5 | 200 ± 30 | 50.39 ± 0.5 | 260 ± 300 | 7.75 | 6.5 ± 0.5 | 9.20 | 5.48 ± 0.5 | 900 ± 100 |  |
| C#Cc1cccc(Nc2ncnc3cc(OCCOC)c(OCCOC)cc23)c1 [Erlotinib, reference compound] |  | 7.73 ± 0.67 |  | 13.9 ± 1.3 |  |  |  |  | 8.2 ± 0.34 |  | 5.49 ± 0.45 |  |  |
| CNC(=O)c1cc(Oc2ccc(NC(=O)Nc3ccc(Cl)c(C(F)(F)F)c3)cc2)ccn1 [Sorafenib, reference compound] |  | 4 ± 0.33 |  |  |  |  |  |  | 5.58 ± 0.55 |  | 4.04 ± 0.33 |  |  |
| CCn1c(=O)n(CC(=O)Nc2ccc(C(=O)OC)cc2)c(=O)c2cc(I)ccc21 [Compound 5a, Methyl 4-{2-[1-ethyl-6-iodo-2,4-dioxo-1,4-dihydroquinazolin-3(2H)-yl]acetamido}benzoate] |  | 12.5 ± 0.7 |  | 11.6 ± 0.7 |  |  | 860 ± 500 |  | 11.4 ± 0.7 |  | 8.45 ± 0.7 | 2000 ± 250 |  |
| CCCn1c(=O)n(CC(=O)Nc2ccc(C(=O)NN)cc2)c(=O)c2cc(I)ccc21 [Compound 7b, N-[4-(hydrazinecarbonyl)phenyl]-2-(6-iodo-2,4-dioxo-1-propyl-1,4-dihydroquinazolin-3(2H)-yl)acetamide] |  | 15.5 ± 1.5 |  | 13.9 ± 1.5 |  |  | 2050 ± 500 |  | 15.9 ± 1.5 |  | 15.1 ± 1.5 | 2250 ± 250 |  |
| CCOC(=O)c1ccc(NC(=O)Cn2c(=O)c3cc(I)ccc3n(CC)c2=O)cc1 [Compound 5b, Ethyl 4-{2-[1-ethyl-6-iodo-2,4-dioxo-1,4-dihydroquinazolin-3(2H)-yl]acetamido}benzoate] |  | 7.59 ± 0.7 |  | 7.4 ± 0.7 |  |  | 800 ± 500 |  | 6.55 ± 0.7 |  | 6.78 ± 0.7 | 1500 ± 100 |  |
| CCn1c(=O)n(CC(=O)Nc2ccc(C(=O)NN=Cc3ccccc3)cc2)c(=O)c2cc(I)ccc21 [Compound 9a, N-[4-(2-benzylidenehydrazine-1-carbonyl)phenyl]-2-[1-ethyl-6-iodo-2,4-dioxo-1,4-dihydroquinazolin-3(2H)-yl]acetamide] | 6.69 | 6.8 ± 0.7 | 6.07 | 7.5 ± 0.7 |  | 45.5 ± 0.5 | 750 ± 500 | 7.23 | 6.29 ± 0.7 | 6.74 | 6.75 ± 0.7 | 1000 ± 100 | 1500 |
| CCCn1c(=O)n(CC(=O)Nc2ccc(C(=O)NN=Cc3ccc(Cl)cc3)cc2)c(=O)c2cc(I)ccc21 [Compound 9e, N-{4-[2-(4-chlorobenzylidene)hydrazine-1-carbonyl]phenyl}-2-{6-iodo-2,4-dioxo-1-propyl-1,4-dihydroquinazolin-3(2H)-yl}acetamide] | 6.25 | 7.36 ± 0.7 | 6.30 | 7.3 ± 0.7 | 250 ± 30 | 46 ± 0.5 | 300 ± 300 | 6.87 | 6.7 ± 0.7 | 7.30 | 6.3 ± 0.7 | 1200 ± 100 |  |
| CCCn1c(=O)n(CC(=O)Nc2ccc(C(=O)OCC)cc2)c(=O)c2cc(I)ccc21 [Compound 5d, Ethyl 4-{2-[6-iodo-2,4-dioxo-1-propyl-1,4-dihydroquinazolin-3(2H)-yl]acetamido}benzoate] | 6.21 | 7.5 ± 0.7 | 6.32 | 7.37 ± 0.7 | 320 ± 30 | 46.6 ± 0.5 | 400 ± 350 | 7.15 | 6.52 ± 0.7 | 6.98 | 6.68 ± 0.7 | 1250 ± 100 |  |
| CCCn1c(=O)n(CC(=O)Nc2ccc(C(=O)OC)cc2)c(=O)c2cc(I)ccc21 [Compound 5c, Methyl 4-{2-[6-iodo-2,4-dioxo-1-propyl-1,4-dihydroquinazolin-3(2H)-yl]acetamido}benzoate] |  | 7.75 ± 0.7 |  | 7.96 ± 0.7 |  |  | 920 ± 500 |  | 6.93 ± 0.7 |  | 6.73 ± 0.7 | 1500 ± 500 |  |
| CCCn1c(=O)n(CC(=O)Nc2ccc(C(=O)NC)cc2)c(=O)c2cc(I)ccc21 [Compound 6b, 4-{2-[6-Iodo-2,4-dioxo-1-propyl-1,4-dihydroquinazolin-3(2H)-yl]acetamido}-N-methylbenzamide] |  | 8.5 ± 0.8 |  | 8.15 ± 0.8 |  |  | 600 ± 350 |  | 8.35 ± 0.8 |  | 6.7 ± 0.8 | 1650 ± 100 |  |
| CCn1c(=O)n(CC(=O)Nc2ccc(C(=O)NN=Cc3ccc(OC)cc3)cc2)c(=O)c2cc(I)ccc21 [Compound 9c, 2-[1-Ethyl-6-iodo-2,4-dioxo-1,4-dihydroquinazolin-3(2H)-yl]-N-{4-[2-(4-methoxybenzylidene)-hydrazine-1-carbonyl]phenyl}acetamide] | 11.00 | 5 ± 0.5 | 9.17 | 6 ± 0.5 | 150 ± 30 | 55 ± 0.5 | 220 ± 300 | 10.64 | 5.17 ± 0.5 | 10.48 | 5.25 ± 0.5 | 850 ± 100 |  |
